# Results reported in patent publication US9707234B2, “Spirocyclic hetercycle compounds useful as HIV integrase inhibitors” (MERCK SHARP & DOHME CORP., priority 2013, dated 2017).
# Test system: HIV-1 (H9IIIB or NL4-3 virus) replication in MT4-GFP cells
# Assay: microbe, parasite or virus in culture
# Assay type: cell-based
# Conditions: Human immunodeficiency virus 1, NL43, MT4-GFP cells infected with HIV-1; 100% normal human serum; inhibition of reproductive ratio R0, 48-72 h post-infection; read-out: ViKinG IP (nM) with 100% NHS
row,Structure (SMILES),IC50
1,COCCN1C(=O)c2c(O)c(=O)c(C(=O)NCc3ccc(F)cc3F)cn2CC12CCNCC2 [Compound 87],98 nM
2,CN1C(=O)c2c(O)c(=O)c(C(=O)NCc3ccc(F)cc3F)cn2CC12CCNCC2 [Compound 88],97 nM
3,COCCCN1C(=O)c2c(O)c(=O)c(C(=O)NCc3ccc(F)cc3F)cn2CC12CCNCC2 [Compound 89],87 nM
4,CN1C(=O)c2c(O)c(=O)c(-c3cnn(Cc4ccc(F)cc4F)c3)cn2CC12CCOC2 (centres unmarked) [Compound 90],123 nM
5,CCOC(=O)N1CCC2(CC1)N(CC)C(=O)c1c(O)c(=O)c(-c3cnn(Cc4ccc(F)cc4F)c3)c(CO)n1N2C [Compound 92],3650 nM
6,CCOC(=O)N1CCC2(CC1)Cn1cc(-c3nnc(Cc4ccc(F)cc4F)s3)c(=O)c(O)c1C(=O)N2C [Compound 94],116 nM
7,CCOC(=O)N1CCC2(CC1)Cn1cc(-c3nnc(Cc4ccc(F)cc4F)s3)c(=O)c(O)c1C(=O)N2CC [Compound 95],104 nM
8,CCOC(=O)N1CCC2(CC1)Cn1cc(-c3nnc(Cc4ccc(F)cc4F)s3)c(=O)c(O)c1C(=O)N2 [Compound 96],2240 nM
9,O=C1c2c(O)c(=O)c(-c3nnc(Cc4ccc(F)cc4F)s3)cn2CC2(CCOC2)N1CCO (centres unmarked) [Compound 97],1050 nM
10,O=C1NC2(CCOCC2)Cn2cc(-c3nnc(Cc4ccc(F)cc4F)s3)c(=O)c(O)c21 [Compound 98],2030 nM
11,CCN1C(=O)c2c(O)c(=O)c(-c3nnc(Cc4ccc(F)cc4F)s3)cn2CC12CCOCC2 [Compound 99],870 nM
12,CCC(c1nnc(-c2cn3c(c(O)c2=O)C(=O)N(CC)C2(CCOCC2)C3)s1)c1ccc(F)cc1F (centres unmarked) [Compound 100],704 nM
13,CN1C(=O)c2c(O)c(=O)c(-c3nnc(Cc4ccc(F)cc4F)s3)cn2CC12CCOC2 (centres unmarked) [Compound 101],70 nM
14,CC(c1nnc(-c2cn3c(c(O)c2=O)C(=O)N(C)C2(CCOC2)C3)s1)c1ccc(F)cc1F (centres unmarked) [Compound 102],85 nM
15,COCCCN1C(=O)c2c(O)c(=O)c(C(=O)NCc3ccc(F)cc3F)cn2N(C)C12CCOCC2 [Compound 141],71 nM
16,COCCCN1C(=O)c2c(O)c(=O)c(C(=O)NCc3ccc(F)cc3F)cn2N(C)C12COC2 [Compound 145],174 nM
17,CCOCCN1C(=O)c2c(O)c(=O)c(C(=O)NCc3ccc(F)cc3F)cn2N(C)C12COC2 [Compound 146],485 nM
18,CCN1C(=O)c2c(O)c(=O)c(C(=O)NCc3ccc(F)cc3F)cn2N(C)C12CCNCC2 [Compound 173],52 nM

# Same assay, conditions: Human immunodeficiency virus 1, NL43, MT4-GFP cells infected with HIV-1; serum free conditions (0% NHS); inhibition of reproductive ratio R0, 48-72 h post-infection; read-out: ViKinG IP (nM) with 0% NHS
row,Structure (SMILES),IC50
1,CCN1C(=O)c2c(O)c(=O)c(C(=O)NCc3ccc(F)cc3F)cn2CC12CCCOC2 (centres unmarked) [Compound 81],4.3 nM
2,COCCN1C(=O)c2c(O)c(=O)c(C(=O)NCc3ccc(F)cc3F)cn2CC12CCNCC2 [Compound 87],16 nM
3,CN1C(=O)c2c(O)c(=O)c(C(=O)NCc3ccc(F)cc3F)cn2CC12CCNCC2 [Compound 88],10.3 nM
4,COCCCN1C(=O)c2c(O)c(=O)c(C(=O)NCc3ccc(F)cc3F)cn2CC12CCNCC2 [Compound 89],16.1 nM
5,CN1C(=O)c2c(O)c(=O)c(-c3cnn(Cc4ccc(F)cc4F)c3)cn2CC12CCOC2 (centres unmarked) [Compound 90],34.1 nM
6,CCOC(=O)N1CCC2(CC1)N(CC)C(=O)c1c(O)c(=O)c(-c3cnn(Cc4ccc(F)cc4F)c3)c(CO)n1N2C [Compound 92],159 nM
7,CCOC(=O)N1CCC2(CC1)Cn1cc(-c3nnc(Cc4ccc(F)cc4F)s3)c(=O)c(O)c1C(=O)N2C [Compound 94],10.6 nM
8,CCOC(=O)N1CCC2(CC1)Cn1cc(-c3nnc(Cc4ccc(F)cc4F)s3)c(=O)c(O)c1C(=O)N2CC [Compound 95],11.6 nM
9,CCOC(=O)N1CCC2(CC1)Cn1cc(-c3nnc(Cc4ccc(F)cc4F)s3)c(=O)c(O)c1C(=O)N2 [Compound 96],69.3 nM
10,O=C1c2c(O)c(=O)c(-c3nnc(Cc4ccc(F)cc4F)s3)cn2CC2(CCOC2)N1CCO (centres unmarked) [Compound 97],41.7 nM
11,O=C1NC2(CCOCC2)Cn2cc(-c3nnc(Cc4ccc(F)cc4F)s3)c(=O)c(O)c21 [Compound 98],91.6 nM
12,CCN1C(=O)c2c(O)c(=O)c(-c3nnc(Cc4ccc(F)cc4F)s3)cn2CC12CCOCC2 [Compound 99],40.9 nM
13,CCC(c1nnc(-c2cn3c(c(O)c2=O)C(=O)N(CC)C2(CCOCC2)C3)s1)c1ccc(F)cc1F (centres unmarked) [Compound 100],29.2 nM
14,CN1C(=O)c2c(O)c(=O)c(-c3nnc(Cc4ccc(F)cc4F)s3)cn2CC12CCOC2 (centres unmarked) [Compound 101],4.6 nM
15,CC(c1nnc(-c2cn3c(c(O)c2=O)C(=O)N(C)C2(CCOC2)C3)s1)c1ccc(F)cc1F (centres unmarked) [Compound 102],6.8 nM
16,COCCCN1C(=O)c2c(O)c(=O)c(C(=O)NCc3ccc(F)cc3F)cn2N(C)C12CCOCC2 [Compound 141],2.3 nM
17,COCCCN1C(=O)c2c(O)c(=O)c(C(=O)NCc3ccc(F)cc3F)cn2N(C)C12COC2 [Compound 145],1.4 nM
18,CCOCCN1C(=O)c2c(O)c(=O)c(C(=O)NCc3ccc(F)cc3F)cn2N(C)C12COC2 [Compound 146],10.9 nM
19,CN1C(=O)c2c(O)c(=O)c(C(=O)NCc3ccc(F)cc3F)cn2N(CCO)C12CCOC2 (centres unmarked) [Compound 147],1.6 nM
20,CCN1C(=O)c2c(O)c(=O)c(C(=O)NCc3ccc(F)cc3F)cn2N(C)C12CCNCC2 [Compound 173],3.2 nM

# Same assay, conditions: MT4-GFP cells infected with HIV-1; 10% normal human serum; inhibition of reproductive ratio R0, 48-72 h post-infection; read-out: ViKinG IP (nM) with 10% NHS
row,Structure (SMILES),IC50
1,CN1C(=O)c2c(O)c(=O)c(C(=O)NCc3ccc(F)cc3F)cn2N(C)C12CCOC2 (centres unmarked) [Compound 104],4 nM

# Same assay, conditions: MT4-GFP cells infected with HIV-1; 100% normal human serum; inhibition of reproductive ratio R0, 48-72 h post-infection; read-out: ViKinG IP (nM) with 100% NHS
row,Structure (SMILES),IC50
1,CCN1C(=O)c2c(O)c(=O)c(C(=O)NCc3ccc(F)cc3F)cn2CC12CCCOC2 (centres unmarked) [Compound 81],323 nM
2,CCN1C(=O)c2c(O)c(=O)c(C(=O)NCc3ccc(F)cc3F)cn2CC12CCCOC2 (centres unmarked) [Compound 82],680 nM
3,CN1C(=O)c2c(O)c(=O)c(C(=O)NCc3ccc(F)cc3F)cn2N(C)C12CCOC2 (centres unmarked) [Compound 104],87 nM
4,CN1C(=O)c2c(O)c(=O)c(C(=O)NCc3ccc(F)cc3F)cn2N(CCO)C12CCOC2 (centres unmarked) [Compound 147],74 nM
5,CN1C(=O)c2c(O)c(=O)c(C(=O)NCc3ccc(F)cc3F)cn2N(CCO)C12CCOC2 (centres unmarked) [Compound 148],33 nM

# Same assay, conditions: MT4-GFP cells infected with HIV-1; serum free conditions (0% NHS); inhibition of reproductive ratio R0, 48-72 h post-infection; read-out: ViKinG IP (nM) with 0% NHS
row,Structure (SMILES),IC50
1,CCN1C(=O)c2c(O)c(=O)c(C(=O)NCc3ccc(F)cc3F)cn2CC12CCCOC2 (centres unmarked) [Compound 82],3.1 nM
2,CN1C(=O)c2c(O)c(=O)c(C(=O)NCc3ccc(F)cc3F)cn2N(C)C12CCOC2 (centres unmarked) [Compound 104],0.8 nM
3,CN1C(=O)c2c(O)c(=O)c(C(=O)NCc3ccc(F)cc3F)cn2N(CCO)C12CCOC2 (centres unmarked) [Compound 148],1.2 nM
